Results published in patent US20180284095A1, “BIOMARKERS ASSOCIATED WITH LSD1 INHIBITORS AND USES THEREOF” (Oryzon Genomics, S.A., priority 2015, published 2018).

Experiments:
[1] = system: SAMP8 mice; assay: Novel Object Recognition Test (NORT) in SAMP8 mice; format: in vivo, mouse
From the text: The Senescence Accelerated Mouse Prone 8 (SAMP8) strain is a non-transgenic model for neurodegeneration reminiscent of Alzheimer's disease (T Takeda, Neurobiol Aging 1999, 20(2):105-10). Memory deficits appear around 5 months of age in SAMP8 mice and can be reliably assessed using the Novel Object Recognition Test (NORT).
Males and females were separated in two different cohorts and all treatments started at 5 months of age. […] Based on the results obtained in the first experiment, doses were adjusted in a second experiment using male mice.
The dose was calculated according to the animal water consumption average par cage and adjusted weekly. The test compound (or vehicle) was available for 5 days followed by a 2 day clearance in a weekly period.
NORT is used to assess animal's behavior when it is exposed to a novel and a familiar object (M Antunes and G Biala, Cogn Process. 2012, 13(2): 93-110). […]
The NORT test was performed after 2 (n=16/group) and repeated at 4 (n=10/group) months of treatment (between […] and 6:30 pm). […] During this second trial, objects A and B were placed in the maze, and the time that the animal explored the new object (tn) and the old object (to) were video-recorded. […]
Statistical analysis was performed using the GraphPad Prism 6.0 software package. NORT data from SAMP8 mice was analyzed by one-way ANOVA with treatment as the main factor. […]

[2] = system: SAMP8 mice; assay: Platelet levels (hemogram) in SAMP8 mice; format: in vivo, mouse
Description: It is known that LSD1 is implicated in normal hematopoiesis (SprDssel et al, Leukemia 2012, 26(9)2039-51). […] The mice were sacrificed and blood was collected in sodium citrate-containing tubes for hemogram analysis. Platelets levels were determined in a standard hematology analyzer (Abacus Junior Vet, from Diatron) following the manufacturer's instructions.

[3] = system: S100A8; assay: qRT-PCR, hippocampus of SAMP8 mice (Example 5); format: in vivo, mouse; conditions: SAMP8 female mice
From the text: (§1) qRT-PCR is a variant of the PCR (Polymerase Chain Reaction) method that permits the simultaneous exponential amplification and detection of specific cDNA fragments. The Taqman gene expression assays employ the principle of doubly labeled hydrolysis probes. The probes are marked with a fluorescent moiety at their 5′ end and with a quencher moiety at the 3′ end, which prevents the generation of fluorescence according to the Förster energy transfer principle.
(§2) During the amplification process, the hydrolysis probe hybridizes to its complementary sequence in the target amplicon. During each cycle, the Taq polymerase initiates the production of a copy of the target sequence starting from the primer. When the Taq polymerase reaches the hydrolysis probe, its 5′-3′ exonuclease activity fragments the hydrolysis probe, and liberates the fluorescent group from the quencher moiety, resulting in the emission of a fluorescent signal.
(§3) In the exponential phase of the amplification reaction, the intensity of the fluorescence is directly proportional to the quantity of PCR product formed. The LightCycler® 480 Software determines the “crossing point” (Cp), i.e. the point where the reaction's fluorescence reaches the maximum of the second derivative of the amplification curve, which corresponds to the point where the acceleration of the fluorescence signal is at its maximum. […] The 2-Cp values are proportional to the target mRNA concentration in the original RNA sample.
(§4) Samples from animals receiving treatment for 2 months and 4 months were processed and statistically analyzed together. After extraction (RNeasy Mini KIT; QIAGEN), total RNA was reverse transcribed to obtain 1st strand cDNA (High Capacity RNA-to-cDNA Master Mix; Applied Biosystems). A serial dilution of 1st strand product from hippocampus was used to perform triplicate qRT-PCR (Taqman gene expression assay, Life technologies) reactions to analyze the Cp values of S100A8 and S100A9. Cp increase was normalized relative to the expression level of an endogenous reference gene (GADPH).

[4] = system: S100A9; assay: qRT-PCR, hippocampus of SAMP8 mice (Example 5); format: in vivo, mouse; conditions: 2 or 4 months
From the text: as §1, §2, §3, §4

[5] = Oral availability and blood-brain barrier crossing (statement)

Question: With “(−) 5-((((trans)-2-(4-(benzyloxy)phenyl)cyclopropyl)amino)methyl)-1,3,4-oxadiazol-2-amine [Compound 1]” as the substance, how does the “memory loss as assessed by NORT” value ([1]; SAMP8 males and females, after 2 m and 4 m of treatment) read?
Answer: The value was “completely prevents memory loss”.

Question: And the “memory deficits (NORT), medium- and long-term memory” value ([1]; SAMP8 males, 0.32 and 0.96 mg/kg/day in drinking water, 2 and 4 months)?
Answer: Its value is “rescued the memory deficits”.

Question: And the platelet levels ([2]; SAMP8, HD (3.2 mg/kg/day))?
Answer: Its platelet levels is “significant reduction of platelet levels”.

Question: And the platelet levels ([2]; SAMP8, LD (0.96 mg/kg/day))?
Answer: Its platelet levels is “no significant reduction of platelet levels”.

Question: And the platelet levels ([2]; SAMP8 males, 0.96 mg/kg/day, 16 weeks (4 months), vs vehicle-treated SAMP8, 0.96 mg/kg/day)?
Answer: Its platelet levels is “no statistically significant effects”.

Question: What about the platelet levels ([2]; SAMP8 males, 0.96 mg/kg/day, 16 weeks (4 months), vs vehicle-treated SAMP8, listed as compound 1, 0.96 mg/kg/day) of the same substance?
Answer: Its platelet levels is “no changes in the platelet blood count”.

Question: And the “S100A8 expression (qRT-PCR)” value [3]?
Answer: Its value is “down-regulated S100A8 expression tendency”.

Question: And the “S100A9 expression (Δ Cp, qRT-PCR)” value ([4]; SAMP8 females, 0.96 mg/kg/day (p<0.001) and 3.2 mg/kg/day (p<0.001))?
Answer: The value was “down-regulated S100A9 expression in a dose-dependent fashion”.

Question: What about the “S100A9 expression (Δ Cp, qRT-PCR)” value ([4]; SAMP8 females, 0.96 mg/kg/day (p<0.001) and 3.2 mg/kg/day (p<0.001), listed as compound 1) of the same substance?
Answer: Its value is “reduction of S100A9 expression”.

Question: And the “S100A9 expression (Δ Cp, qRT-PCR)” value ([4]; SAMP8 males, 0.96 mg/kg (p<0.001), 0.96 mg/kg)?
Answer: The value was “down-regulated S100A9 expression”.

Question: What about the “S100A9 expression (Δ Cp, qRT-PCR)” value ([4]; SAMP8 males, 0.96 mg/kg (p<0.001), listed as compound 1, 0.96 mg/kg) of the same substance?
Answer: Its value is “reduction of S100A9 expression”.

Question: What about the blood-brain barrier crossing [5] of the same substance?
Answer: Its blood-brain barrier crossing is “cross the blood-brain barrier”.

Question: What about the oral availability [5] of the same substance?
Answer: The oral availability was “orally available”.
